Legend:
in vivo = test: in vivo; set-up: species or system mouse (male SLC-ICR mice); details: mouse; for Bioavailability / AUC (area under plasma-concentration curve of non-ester form, 0 to 2 hr): 100 mg/kg; for AUC (area under plasma-concentration curve of non-ester form, 0 to 2 hr): po
Experimental: Test compounds: compounds obtained in examples 6, 8, 10, 13, 14, 16, 21, 23 and compound for control: pivaloyloxymethyl 7β-[2-(2-aminothiazol-4-yl)acetamido]-3-[[[1-(2-dimethylaminoethyl)-1H-tetrazol-5-yl]thio]methyl]-ceph-3-em-4-carboxylate (This will be referred to simply "compound A" hereinafter).
Male SLC-ICR mice (4 weeks old) were starved but under free access to drinking water for 16-18 hr. period to the experiments. The test compound was administered orally by intubation as an aqueous solution with 2.5 equimolar of tartaric acid at a dose of 100 mg/kg as non-ester form of the Compound I, to a group of four mice. […] The concentration of the non-ester form of the Compound I in the plasma was measured by the cylinder-plate method using Proteus mirabilis ATCC 21100 as an assay organism.
Control test: an aqueous solution of non-ester form of the Compound I in an amount of 10 ml water/Kg mouse body weight, was subcutaneously applied and AUC was calculated in the same manner as above.
Area under plasma-concentration curve (AUC) for 0 to 2 hr. after
administration was calculated by the trapezoidal rule.

[1] = test system: gram-positive bacteria (e.g., Staphylococcus aureus); test: Antibacterial activity against gram-positive bacteria; type: cell-based; details: in words
[2] = test system: gram-negative bacteria (e.g., Escherichia coli, Klebsiella pneumonia, Proteus vulgaris, Proteus mirabilis, Proteus morganii); test: Antibacterial activity against gram-negative bacteria; type: cell-based; details: in words

Row | SMILES | Bioavailability (in vivo; 120 min) | AUC (area under plasma-concentration curve of non-ester form, 0 to 2 hr) (in vivo; 120 min) | antibacterial activity against gram-positive bacteria [1] | antibacterial activity against gram-negative bacteria [2] | AUC at 2 h (in vivo; sc) | Bioavailability, control (in vivo; sc, 120 min)
1 | CCCCCCCC(=O)OC(C)OC(=O)C1=C(CSc2nnnn2CCN(C)C)CS[C@@H]2[C@H](NC(=O)Cc3csc(N)n3)C(=O)N12 (stereo partly drawn) [Example 13, 1-(n-octanoyloxy)ethyl 7β-[2-(2-aminothiazol-4-yl)acetamido]-3-[[[1-(2-dimethylaminoethyl)-1H-tetrazol-5-yl]thio]methyl]ceph-3-em-4-carboxylate] | 60.6% | 23500 ng·h/mL | – | – | – | –
2 | CCCCCC(=O)OC(CC)OC(=O)C1=C(CSc2nnnn2CCN(C)C)CS[C@@H]2[C@H](NC(=O)Cc3csc(N)n3)C(=O)N12 (stereo partly drawn) [Example 16, 1-(n-hexanoyloxy)propyl 7β-[2-(2-aminothiazol-4-yl)acetamido]-3-[[[1-(2-dimethylaminoethyl)-1H-tetrazol-5-yl]thio]methyl]ceph-3-em-4-carboxylate] | 65.0% | 25200 ng·h/mL | – | – | – | –
3 | CN(C)CCn1nnnc1SCC1=C(C(=O)OCOC(=O)C(C)(C)C)N2C(=O)[C@@H](NC(=O)Cc3csc(N)n3)[C@H]2SC1 [Compound A, pivaloyloxymethyl 7β-[2-(2-aminothiazol-4-yl)acetamido]-3-[[[1-(2-dimethylaminoethyl)-1H-tetrazol-5-yl]thio]methyl]-ceph-3-em-4-carboxylate, reference compound] | 41.8% | – | – | – | – | –
4 | CCC(C)CC(=O)OC(C)OC(=O)C1=C(CSc2nnnn2CCN(C)C)CS[C@@H]2[C@H](NC(=O)Cc3csc(N)n3)C(=O)N12 (stereo partly drawn) [Example 10, 1-(3-methylpentanoyloxy)ethyl 7β-[2-(2-aminothiazol-4-yl)acetamido]-3-[[[1-(2-dimethylaminoethyl)-1H-tetrazol-5-yl]-thio]methyl]ceph-3-em-4-carboxylate] | 93.2% | 36200 ng·h/mL | – | – | – | –
5 | CN(C)CCn1nnnc1SCC1=C(C(=O)O)N2C(=O)[C@@H](NC(=O)Cc3csc(N)n3)[C@H]2SC1 [non-ester form of Compound I, 7β-[2-(2-aminothiazol-4-yl)acetamido]-3-[[[1-(2-dimethylaminoethyl)-1H-tetrazol-5-yl]thio]methyl]ceph-3-em-4-carboxylic acid, reference compound] | – | – | excellent antibacterial activity | excellent antibacterial activity | 38800 ng·h/mL | 100%
6 | CCCCCC(=O)OC(C)OC(=O)C1=C(CSc2nnnn2CCN(C)C)CS[C@@H]2[C@H](NC(=O)Cc3csc(N)n3)C(=O)N12 (stereo partly drawn) [Example 6, 1-(n-hexanoyloxy)ethyl 7β-[2-(2-aminoethiazol-4-yl)acetamido]-3-[[[1-(2-dimethylaminoethyl)-1H-tetrazol-5-yl]thio]methyl]ceph-3-em-4-carboxylate] | 67.5% | 26200 ng·h/mL | – | – | – | –
7 | CCCC(CCC)C(=O)OC(C)OC(=O)C1=C(CSc2nnnn2CCN(C)C)CS[C@@H]2[C@H](NC(=O)Cc3csc(N)n3)C(=O)N12 (stereo partly drawn) [Example 14, 1-(2-n-propylpentanoyloxy)ethyl 7β-[2-(2-aminothiazol-4-yl)acetamido]-3-[[[1-(2-dimethylaminoethyl)-1H-tetrazol-5-yl)thio]methyl]ceph-3-em-4-carboxylate] | 66.0% | 25600 ng·h/mL | – | – | – | –
8 | CC(C)CCC(=O)OC(C)OC(=O)C1=C(CSc2nnnn2CCN(C)C)CS[C@@H]2[C@H](NC(=O)Cc3csc(N)n3)C(=O)N12 (stereo partly drawn) [Example 8, 1-(4-methylpentanoyloxy)ethyl 7β-[2-(2-aminothiazol-4-yl)acetamido]-3-[[[1-(2-dimethylaminoethyl)-1H-tetrazol-5-yl]thio]methyl]ceph-3-em-4-carboxylate] | 52.8% | 20500 ng·h/mL | – | – | – | –
9 | CCC(CC)C(=O)OC(C)OC(=O)C1=C(CSc2nnnn2CCN(C)C)CS[C@@H]2[C@H](NC(=O)Cc3csc(N)n3)C(=O)N12 (stereo partly drawn) [Example 21, 1-(2-ethylbutyryloxy)ethyl 7β-[2-(2-aminothiazol-4-yl)acetamido]-3-[[[1-(2-dimethylaminoethyl)-1H-tetrazol-5-yl]thio]methyl]ceph-3-em-4-carboxylate] | 100.0% | 38800 ng·h/mL | – | – | – | –
10 | CCC(CC)CC(=O)OC(C)OC(=O)C1=C(CSc2nnnn2CCN(C)C)CS[C@@H]2[C@H](NC(=O)Cc3csc(N)n3)C(=O)N12 (stereo partly drawn) [Example 23, 1-(3-ethylpentanoyloxy)ethyl 7β-[2-(2-aminothiazol-4-yl)acetamido]-3-[[[1-(2-dimethylaminoethyl)-1H-tetrazol-5-yl]thio]methyl]ceph-3-em-4-carboxylate] | 78.2% | 30300 ng·h/mL | – | – | – | –

Reference: patent US4497809A, “Cephalosporin derivatives” (Takeda Chemical Industries, Ltd., priority 1982, dated 1985)
